This note sets out measurements from ChEMBL document CHEMBL3421625, “Discovery and optimization of novel antagonists to the human neurokinin-3 receptor for the treatment of sex-hormone disorders (Part I)” (J Med Chem, 2015).

In general, IC50 refers to the concentration needed to halve the response being measured. Usually Tmax stands for the time at which the peak concentration occurs. What is called clearance is the volume of plasma or blood freed of the substance per unit of time. Usually Ki stands for the dissociation constant of the complex between target and ligand, obtained from inhibition or displacement. Usually fraction unbound stands for the share of the substance not bound to proteins or other matrix. Usually thermodynamic solubility stands for the concentration in solution at equilibrium with solid. The term logD denotes the decadic logarithm of the distribution of all forms, ionised or not, between an organic phase and buffer at a given pH. The Vd is a proportionality between amount in the body and measured concentration, not a real space. As usually defined, the inhibition is the relative decrease from the control value, in per cent.

Converted amounts (≈) assume the structure as drawn.

In series [1] the target is Cytochrome P450 2C19 (Homo sapiens, UniProt P33261). The series is described as follows: Inhibition of CYP2C19 (unknown origin) by luciferase reporter assay in presence of NADPH regeneration system.
Chain of Cytochrome P450 2C19 (P33261 whole entry): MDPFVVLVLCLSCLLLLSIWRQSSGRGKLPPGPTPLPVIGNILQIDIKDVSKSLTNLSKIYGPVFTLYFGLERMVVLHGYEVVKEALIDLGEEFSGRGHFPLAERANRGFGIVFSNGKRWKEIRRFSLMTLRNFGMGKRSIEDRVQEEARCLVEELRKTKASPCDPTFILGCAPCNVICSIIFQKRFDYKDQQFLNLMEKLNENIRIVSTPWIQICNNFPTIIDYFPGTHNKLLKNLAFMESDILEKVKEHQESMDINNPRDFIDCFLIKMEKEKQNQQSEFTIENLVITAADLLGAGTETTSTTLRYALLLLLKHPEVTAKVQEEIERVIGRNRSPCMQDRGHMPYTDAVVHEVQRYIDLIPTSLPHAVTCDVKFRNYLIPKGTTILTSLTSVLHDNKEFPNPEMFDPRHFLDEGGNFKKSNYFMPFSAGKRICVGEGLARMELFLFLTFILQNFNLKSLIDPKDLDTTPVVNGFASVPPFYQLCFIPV
For series [2], the system named is Rattus norvegicus. The series is described as follows: Drug uptake in Sprague-Dawley rat at 30 mg/kg, po bid administered for 5 days. It is filed as ADME, organism-based. Also noted: dose 30 mg/kg, route oral. To be noted: in vivo, 120 h.
Series [3] in a line: Tmax in castrated cynomolgus monkey at 5 mg/kg, po by LC-MS/MS analysis. It is filed as ADME, organism-based, Macaca fascicularis. To be noted: male, in vivo. Also noted: dose 5 mg/kg, route oral.
Series [4] deals with Cytochrome P450 3A4 (Homo sapiens, UniProt P08684). The series is described as follows: Inhibition of CYP3A4 (unknown origin) by luciferase reporter assay in presence of NADPH regeneration system. It is filed as ADME. On the technique in general: A reporter such as luciferase makes a cellular process visible.
Chain of Cytochrome P450 3A4 (P08684 whole entry): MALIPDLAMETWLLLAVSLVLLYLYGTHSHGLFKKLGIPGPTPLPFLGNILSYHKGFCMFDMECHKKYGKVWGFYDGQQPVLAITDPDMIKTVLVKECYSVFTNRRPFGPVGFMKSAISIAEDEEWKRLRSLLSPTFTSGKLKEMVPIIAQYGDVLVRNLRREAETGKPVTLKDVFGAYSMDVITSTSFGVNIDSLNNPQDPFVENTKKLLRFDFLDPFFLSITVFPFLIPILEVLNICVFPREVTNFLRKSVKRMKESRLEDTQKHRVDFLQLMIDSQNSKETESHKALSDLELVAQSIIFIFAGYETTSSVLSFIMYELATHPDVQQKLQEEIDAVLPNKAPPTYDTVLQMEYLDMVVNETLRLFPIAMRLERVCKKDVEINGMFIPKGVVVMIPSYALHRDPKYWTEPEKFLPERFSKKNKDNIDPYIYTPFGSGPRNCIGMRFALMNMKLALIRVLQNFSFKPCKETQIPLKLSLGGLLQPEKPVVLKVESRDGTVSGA
Series [5] relates to Rattus norvegicus. The series is described as follows: Unbound AUC in Sprague-Dawley rat at 1 mg/kg, iv by LC-MS/MS analysis. It is filed as ADME, organism-based. Also noted: dose 1 mg/kg, route intravenous. To be noted: in vivo.
Series [6] has as its system Cynomolgus monkey. In words: Unbound Cmax in castrated cynomolgus monkey at 5 mg/kg, po by LC-MS/MS analysis. To be noted: in vivo. It is filed as ADME, organism-based, Macaca fascicularis. Also noted: dose 5 mg/kg, route oral.
A short description of series [7]: Total systemic clearance in Sprague-Dawley rat at 1 mg/kg, iv by LC-MS/MS analysis. It is filed as ADME, organism-based. To be noted: in vivo. Also noted: dose 1 mg/kg, route intravenous.
The nature of series [8]: in vivo. To be noted: Sprague-Dawley, rat, po, 3 mg/kg.
Series [9] addresses T1, Neuromedin-K receptor (Rattus norvegicus, UniProt P16177).
T1 sequence (P16177 whole entry): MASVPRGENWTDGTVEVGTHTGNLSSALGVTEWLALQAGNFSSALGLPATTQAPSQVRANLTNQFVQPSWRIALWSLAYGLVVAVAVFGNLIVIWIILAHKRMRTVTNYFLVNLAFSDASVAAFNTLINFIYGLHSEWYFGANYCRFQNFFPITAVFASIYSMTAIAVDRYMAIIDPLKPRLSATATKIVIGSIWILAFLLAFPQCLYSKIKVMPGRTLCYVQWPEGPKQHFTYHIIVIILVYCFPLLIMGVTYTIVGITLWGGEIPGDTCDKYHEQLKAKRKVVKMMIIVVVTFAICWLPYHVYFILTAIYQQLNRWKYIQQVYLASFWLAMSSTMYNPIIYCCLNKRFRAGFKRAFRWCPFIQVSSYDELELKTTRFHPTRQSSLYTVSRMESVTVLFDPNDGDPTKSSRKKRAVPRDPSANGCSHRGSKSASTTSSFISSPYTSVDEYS
Description: Displacement of [3H]-SB222200 from rat NK3R after 90 mins by scintillation counting analysis

Series [10] in a line: Fraction unbound in rat plasma at 5 uM after 4 hrs by equilibrium dialysis method. It is filed as ADME, cell-free. Background: Equilibrium dialysis compares concentrations on both sides of a semipermeable membrane.
The target in series [11] is Cytochrome P450 2C9 (Homo sapiens, UniProt P11712). In words: Inhibition of CYP2C9 (unknown origin) by luciferase reporter assay in presence of NADPH regeneration system. It is filed as ADME.
Chain of Cytochrome P450 2C9 (P11712 whole entry): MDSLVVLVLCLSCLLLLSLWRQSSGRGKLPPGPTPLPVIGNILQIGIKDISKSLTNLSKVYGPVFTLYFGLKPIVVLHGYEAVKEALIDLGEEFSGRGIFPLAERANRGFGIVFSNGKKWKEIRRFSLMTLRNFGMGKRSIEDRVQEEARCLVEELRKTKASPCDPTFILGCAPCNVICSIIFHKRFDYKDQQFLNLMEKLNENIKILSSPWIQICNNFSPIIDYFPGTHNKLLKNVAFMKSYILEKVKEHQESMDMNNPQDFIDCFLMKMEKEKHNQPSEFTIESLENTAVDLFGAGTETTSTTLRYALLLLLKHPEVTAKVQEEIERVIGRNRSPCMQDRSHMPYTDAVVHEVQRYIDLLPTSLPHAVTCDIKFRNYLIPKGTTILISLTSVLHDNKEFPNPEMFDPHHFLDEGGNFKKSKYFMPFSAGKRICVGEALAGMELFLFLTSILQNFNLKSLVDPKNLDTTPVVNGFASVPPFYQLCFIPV
Series [12] can be described thus: Solubility of the compound in PBS buffer at pH 7.4 by shake-flask method. It is filed as physicochemical.
Series [13] addresses Cytochrome P450 2D6 (Homo sapiens, UniProt P10635). In words: Inhibition of CYP2D6 (unknown origin) by luciferase reporter assay in presence of NADPH regeneration system. It is filed as ADME.
Series [14] is described as follows: Lipophilicity, log D of the compound at pH 7.4. It is filed as physicochemical. To be noted: buffer.
In series [15] the target is T2, Cytochrome P450 1A2 (Homo sapiens, UniProt P05177).
T2 sequence (P05177 whole entry): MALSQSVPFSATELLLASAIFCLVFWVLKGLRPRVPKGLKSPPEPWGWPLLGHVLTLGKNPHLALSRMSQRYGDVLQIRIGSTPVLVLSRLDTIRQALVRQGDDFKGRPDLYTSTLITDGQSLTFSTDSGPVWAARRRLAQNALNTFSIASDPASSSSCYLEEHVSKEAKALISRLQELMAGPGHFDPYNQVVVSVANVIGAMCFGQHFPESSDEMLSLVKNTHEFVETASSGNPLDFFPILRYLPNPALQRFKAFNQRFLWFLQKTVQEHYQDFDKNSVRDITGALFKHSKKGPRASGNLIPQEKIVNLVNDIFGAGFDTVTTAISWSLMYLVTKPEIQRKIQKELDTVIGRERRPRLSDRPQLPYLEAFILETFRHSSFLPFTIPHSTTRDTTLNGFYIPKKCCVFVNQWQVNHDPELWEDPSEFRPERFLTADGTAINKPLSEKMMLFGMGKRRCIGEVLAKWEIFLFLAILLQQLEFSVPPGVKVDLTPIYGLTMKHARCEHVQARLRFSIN
The series is described as follows: Inhibition of CYP1A2 (unknown origin) by luciferase reporter assay in presence of NADPH regeneration system. It is filed as ADME.

A short description of series [16]: Fraction unbound in rat brain at 5 uM after 4 hrs by equilibrium dialysis method. It is filed as ADME, tissue-based.
Series [17] in a line: Ratio of unbound drug level in brain to plasma in Sprague-Dawley rat at 1 mg/kg, iv measured at 10 mins. To be noted: brain and plasma.
The nature of series [18]: Ratio of unbound drug level in brain to plasma in Sprague-Dawley rat at 1 mg/kg, iv measured at 60 mins. To be noted: brain and plasma.
Series [19] in a line: in vivo. To be noted: Sprague-Dawley, rat, iv, 1 mg/kg.
Description: Volume of distribution at steady state in Sprague-Dawley rat at 1 mg/kg, iv by LC-MS/MS analysis
Series [20] addresses T3, NK-3 receptor (Macaca mulatta, UniProt Q2WGM0).
T3 sequence (Q2WGM0 whole entry): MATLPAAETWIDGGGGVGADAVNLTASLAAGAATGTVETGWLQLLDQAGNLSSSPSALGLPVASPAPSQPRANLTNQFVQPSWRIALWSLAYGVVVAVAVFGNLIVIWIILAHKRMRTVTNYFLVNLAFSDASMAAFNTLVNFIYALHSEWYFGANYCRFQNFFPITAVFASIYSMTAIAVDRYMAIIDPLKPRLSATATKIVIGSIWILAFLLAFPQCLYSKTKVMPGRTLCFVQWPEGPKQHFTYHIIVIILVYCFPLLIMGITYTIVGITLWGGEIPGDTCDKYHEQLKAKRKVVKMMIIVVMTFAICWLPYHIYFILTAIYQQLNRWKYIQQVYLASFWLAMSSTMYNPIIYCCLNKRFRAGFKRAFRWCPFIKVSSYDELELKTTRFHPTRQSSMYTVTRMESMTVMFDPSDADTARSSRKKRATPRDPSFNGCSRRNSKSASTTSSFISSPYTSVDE
Description: Displacement of [3H]-SB222200 from monkey NK3R after 90 mins by scintillation counting analysis

Series [21] deals with T4, Gonadotropin-releasing hormone receptor (Homo sapiens) (UniProt P30968).
T4 sequence (whole entry): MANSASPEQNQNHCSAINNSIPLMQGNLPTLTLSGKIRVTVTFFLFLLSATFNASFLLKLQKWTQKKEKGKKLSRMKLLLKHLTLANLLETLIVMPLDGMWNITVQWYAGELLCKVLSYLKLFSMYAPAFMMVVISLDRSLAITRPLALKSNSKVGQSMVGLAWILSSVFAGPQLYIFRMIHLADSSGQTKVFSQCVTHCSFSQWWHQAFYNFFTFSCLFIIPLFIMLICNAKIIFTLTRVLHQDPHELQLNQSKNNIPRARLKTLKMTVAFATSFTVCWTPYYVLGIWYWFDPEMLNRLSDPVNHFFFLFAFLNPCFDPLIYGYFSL
In words: Inhibition of GnRH-R (unknown origin) at 10 uM relative to control.

The subject of series [22] is Rattus norvegicus. In words: Unbound AUC in Sprague-Dawley rat at 3 mg/kg, po by LC-MS/MS analysis. It is filed as ADME, organism-based. To be noted: in vivo. Also noted: dose 3 mg/kg, route oral.
The subject of series [23] is Rattus norvegicus. The series is described as follows: Unbound Cmax in Sprague-Dawley rat at 3 mg/kg, po by LC-MS/MS analysis. To be noted: in vivo. Also noted: dose 3 mg/kg, route oral. It is filed as ADME, organism-based.

Chain of Cytochrome P450 2D6 (P10635 whole entry): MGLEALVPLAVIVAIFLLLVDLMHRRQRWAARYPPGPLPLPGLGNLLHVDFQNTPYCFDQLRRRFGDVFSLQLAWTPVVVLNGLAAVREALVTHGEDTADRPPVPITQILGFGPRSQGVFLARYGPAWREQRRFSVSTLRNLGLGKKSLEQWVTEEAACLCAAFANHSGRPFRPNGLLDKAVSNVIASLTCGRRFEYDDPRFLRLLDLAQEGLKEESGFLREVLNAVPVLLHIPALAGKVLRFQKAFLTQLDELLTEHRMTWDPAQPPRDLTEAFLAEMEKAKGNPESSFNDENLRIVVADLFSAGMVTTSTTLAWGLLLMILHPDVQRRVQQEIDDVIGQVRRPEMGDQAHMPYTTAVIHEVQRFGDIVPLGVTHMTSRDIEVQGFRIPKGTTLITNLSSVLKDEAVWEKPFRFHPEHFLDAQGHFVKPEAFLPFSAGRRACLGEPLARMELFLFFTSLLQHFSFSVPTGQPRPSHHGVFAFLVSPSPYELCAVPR

On to `Cc1nc(-c2nnc3n2CCN(C(=O)c2ccc(-c4cccs4)cc2)[C@@H]3C)cs1`, for which the IC50 in series [1] was 34 µM; in series [4], 50 µM; in series [11], 21 µM; in series [13] it was more than 100 µM; in series [15] it was 26 µM. In addition, the Drug uptake result in [2] was “Not Active”. Moreover, the Tmax in series [3] is 90 min; in series [8], 45 min. In addition, the fAUC in [5] was determined as 16.9 µM·min; in series [22] it was 60.3 µM·min. For the same compound, the figures for the fCmax in [6] and in series [23] were 17.9 nM and 443 nM, respectively. The same compound gave a clearance in series [7] of 7.4 mL/min/kg. Further, the inhibition constant (Ki) in series [9] was 0.076 µM; in [20], 0.02 µM. The fraction unbound at 4 h, 5 µM worked out at 0.055 in series [10] and 0.028 in series [16]. Besides, the solubility (thermodynamic) in [12] amounted to 118 µM (≈ 49.7 µg/mL). In [14] (read-out: logD), the logD came out at 3.1. Further, the Kp uu at 10 min in series [17] was 0.2. Also, in series [18], the Kp uu at 1 h amounted to 0.1. Moreover, the Vd in series [19] is 1.4 L/kg. In series [21], this compound displayed an inhibition of 30%.
Consider `C[C@@H]1c2nnc(-c3csc(-c4ccc(F)cc4F)n3)n2CCN1C(=O)c1ccc(-c2cccs2)cc1`, for which the IC50 came out at 4 µM in series [1]; 19 µM in series [4]; 3 µM in [11]; 7 µM in [13]; 21 µM in series [15]. Moreover, the fAUC in series [5] stood at 0.2 µM·min; in [22], 0.1 µM·min. The same compound registered a clearance in series [7] of 8.9 mL/min/kg. Also, the Tmax in series [8] was 45 min. The results for the Ki in series [9] and in series [20] were 0.013 µM and 0.00398 µM, respectively. In addition, the fraction unbound at 4 h, 5 µM in series [10] worked out at 0.0008; in series [16], 0.001. The compound further had a thermodynamic solubility in series [12] of 0.4 µM (≈ 0.208 µg/mL). Further, the logD in series [14] was 5. In series [17], the Kp uu at 10 min came out at 1.9. In addition, the Kp uu at 1 h in series [18] was determined as 2.5. For the same compound, the Vd in series [19] worked out at 4.1 L/kg. The inhibition in [21] came out at 35%. The same compound gave a fCmax in series [23] of 0.14 nM.
